# Test results reported in patent publication US20210267948A1, “TREATMENT OF CANCER” (CITY OF HOPE, priority 2017, published 2021).
# How the values were obtained:
# MCF-7 p53−/− = experiment: DNA damage checkpoint Western blot, MCF-7 p53-/-; format: cell-based, human
# Procedure: FIG. 6. COH29 treatment activates DNA damage checkpoint. The effect of COH29 treatment on DNA damage checkpoint proteins in human breast cancer cells expressing wt p53 (MCF-7) or defective for p53 (MCF-7p53−/−), and in triple-negative breast cancer cells (MDA-MB-468) assessed by Western Blot.
# (§1) For subcellular fractionation, cells were trypsinized and washed with cold PBS solution twice. After centrifugation at 1,200 g for 5 min, cells were incubated in buffer (50 mM HEPES, pH 7.5, 150 mM NaCl, 1 mM EDTA) containing 0.2% NONIDET™ P-40 (NP-40), supplemented with protease inhibitors (5 μg/ml each of pepstatin, leupeptin, and aprotinin) and phosphatase inhibitors on ice for 5 min. Following centrifugation at 1,000 g for 5 min, the supernatant was collected (i.e., cytoplasmic fraction) and pellets were washed with the same buffer twice. The washed samples were extracted for 40 min on ice with fractionation buffer containing 0.5% NP-40 for nuclear fraction. All the samples were sonicated and clarified by centrifugation at 16,000 g for 15 min. Protein concentrations of all fractions were determined with Bio-Rad Protein Assay (Bio-Rad Laboratories, Hercules, Calif.). Immunoblotting was performed as described previously (21,22). […] The immunoblots were visualized on film with the West-Q chemi-luminescence kit (GenDEPOT, Barker, Tex.).
# HCC1937+BRCA1 = experiment: Cytotoxicity assay, HCC1937+BRCA1; format: cell-based, human; details: 10 μM, 72 h
# Procedure: All cell lines were acquired from the American Type Culture Collection (Manassas, Va., USA). Cells were maintained in RPMI 1640 medium (Mediatech) with 10% fetal bovine serum, 2 mM glutamine, and 100 U of penicillin and 100 μg of streptomycin per ml of medium (Sigma) at 37° C. in 5% CO2. To isolate HCC1937+BRCA1 cells, parental HCC1937 cells were transfected with pcDNA3.1 plasmid expressing full-length BRCA1 cDNA. Stable transfectant clones were selected and used for drug sensitivity assays. For stable transfection, cells at 30-40% confluence were incubated overnight with […] of plasmid DNA, using FUGENE® 6 transfectin reagent (Roche Molecular Biochemical, Monza, Italy) according to the manufacturer's instructions. Cells were then selected in puromycin (1 μg/ml) (Invitrogen Life Technologies, La Jolla, Calif., USA). After 20 to 30 days, viable puromycin-resistant colonies from HCC1937 transfections were expanded and screened. The clones that stably expressed puromycin and retained growth potential were assayed for BRCA1 expression by Western blot analysis. The restoration of BRCA1 expression in the puromycin-resistant cDNA/transfectant cells was evaluated by Western blot analysis.
# The MTT cytotoxicity assay was performed by incubating with MTT and monitoring the MTT formazan formed by viable cells with a microplate reader at a wavelength of 560 nm; the survival ratio was determined using the formula: (Atest−Ablank)/(Acontrol−Ablank)×100%. The cytotoxicity was determined in 96-well plates using the semiautomatic fluorescence-based Digital Imaging Microscopy System (DIMSCAN). DIMSCAN uses digital imaging microscopy to quantify viable cells, which selectively accumulate FDA (fluorescein diacetate; Alfa Aesar, Ward Hill, Mass.). DIMSCAN is capable of measuring cytotoxicity over a 4 log dynamic range by quantifying total fluorescence per well (which is proportional to the number of viable cells) after elimination of the background fluorescence by digital thresholding and eosin Y (Mallinckrodt Baker, Center Valley, Pa.) quenching. […]
# A549 cells = experiment: DDR proteins in A549 cells (Western blot, immunofluorescence); format: cell-based, human
# Procedure: Immunofluorescence experiments were conducted as described previously (21,22). Specifically, A549 cells were grown on glass coverslips. After treatment with COH29 (1 or 10 μM) for 24 or 48 hours, cells were fixed with 4% paraformaldehyde for 10 min and permeabilized with TRITON™ X-100 (0.5%). The coverslips were washed with phosphate-buffered saline (PBS) and blocked with PBS-containing 2% bovine serum albumin (BSA), incubated with an Ab specific to FOXO3 or ATM-pS1981 or γ-H2AX or p53-pS15 (1:50-1:200 dilution), followed by Alexa 488-conjugated anti-rabbit or anti-mouse (1:200), Alexa 594-conjugated anti-goat (1:100) secondary Abs (Molecular Probes). Cells were incubated with 4′,6-diamidino-2-phenylindole (DAPI; Sigma) to stain the nuclei. Specific staining was visualized and images were captured with a Leica SP2 AOBS confocal laser scanning microscope. To measure foci-positive cells, ˜300 cells were used randomly captured by confocal microscopy. The percentages of considering foci-positive cells were calculated from cells containing at least five foci. Each error bar presented is the mean of standard deviation.
# as §1, with “All the samples were sonicated and clarified by centrifugation at 16,000 g for 15 min.” left out, “Calif.).” for “Calif.). Immunoblotting was performed as described previously (21,22).”
# [1] = Exposure in animal toxicology studies; details: in vivo, read-out: AUC, maximum level observed
# Procedure: Maximum dose level is capped at 2400 mg/day (Dose Level 8) corresponding to closest highest level achieved in animal studies. […] Intrapatient dose escalation is permissible if a dose level has been cleared.
smiles,measurement,setting,value
"O=C(Nc1nc(-c2ccc(O)c(O)c2)c(-c2ccccc2)s1)c1ccc(O)c(O)c1 [COH29, N-(4-(3,4-dihydroxyphenyl)-5-phenylthiazol-2-yl)-3,4-dihydroxybenzamide]","DNA damage checkpoint proteins (ATM, CHK1, CHK2)",MCF-7 p53−/−,similarly modified
same,γ-H2AX level,MCF-7 p53−/−,increase
same,cells survived,HCC1937+BRCA1; HCC1937+BRCA1 transfected with BRCA1 siRNA,53%
same,cells survived,HCC1937+BRCA1; HCC1937+BRCA1 transfected with control siRNA,72%
same,protein level of BRCA1 and Rad51 foci formation,"A549 cells; A549, 24 h",suppressed
same,"γ-H2AX, phospho-p53 and phospho-ATM in the nucleus","A549 cells; A549, BRCA1 wild-type, 48 h",induced accumulation
same,Rad51 expression in the nucleus,"A549 cells; A549, BRCA1 wild-type, Western analysis",downregulated
same,AUC,[1],5000 ng·h/mL
